# Test results reported in PubChem BioAssay (NCI).
# Values joined by “and” are separate entries in the source; they are usually repeats but may differ in a detail not shown here. Equal values may be shown once.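 Method: 48-hour compound exposure of cells in 96-well plates, five concentrations, linear interpolation of endpoints. GI50 is the concentration that inhibits growth by half. TGI: concentration producing complete growth inhibition.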
# Key:
# Experiment in all cases: NCI-60 cell line screen, 48 h
# [1] = tested on: M14 melanoma
# [2] = tested on: SF-295 CNS
# [3] = tested on: CCRF-CEM leukemia
# [4] = tested on: MCF7 breast
# [5] = tested on: OVCAR-8 ovarian
# [6] = tested on: SK-MEL-28 melanoma
# [7] = tested on: HOP-92 NSCLC
# [8] = tested on: IGROV1 ovarian
# [9] = tested on: NCI-H460 lung
# [10] = tested on: DU-145 prostate
Compound,GI50 [1],TGI [1],GI50 [2],TGI [2],GI50 [3],GI50 [4],GI50 [5],TGI [5],GI50 [6],TGI [6],GI50 [7],TGI [7],GI50 [8],GI50 [9],TGI [9],TGI [8],TGI [3],TGI [4],TGI [10],GI50 [10]
C[C@H]1CCC/C=C/[C@@H]2C[C@H](O)C[C@H]2[C@H](O)[C@H](S(=O)c2ccc(O)cc2)CC(=O)O1 (stereo partly specified),33 nM,> 100 µM,69.8 nM,> 100 µM,48 nM,32.3 nM,< 16.7 nM,0.238 µM,31.6 nM,> 100 µM,52.9 nM,> 100 µM,147 nM,16.8 nM,0.0703 µM,,,,,
c1cncc(C2c3[nH]c4ccccc4c3CCN2CCCN2CCCCC2)c1 (stereo unspecified),,41.1 µM,,> 100 µM,,,,> 100 µM,,47 µM,,> 100 µM,,,> 100 µM,> 100 µM,,,,
CSc1nc(NC2OCC(OC(C)=O)C(OC(C)=O)C2OC(C)=O)c(N=CC=Nc2c(NC3OCC(OC(C)=O)C(OC(C)=O)C3OC(C)=O)nc(SC)n(C)c2=O)c(=O)n1C (stereo unspecified),,> 100 µM,,> 100 µM,,,,> 100 µM,,> 100 µM,,> 100 µM,,,> 100 µM,> 100 µM,,,,
CSc1ccc(-c2cn3ccsc3n2)c(O)c1,,> 100 µM,,> 100 µM,,,,> 100 µM,,> 100 µM,,> 100 µM,,,> 87.4 µM,> 100 µM,> 60.9 µM,,,
COc1cc2[nH]c(C(=O)c3cc(OC)c(OC)c(OC)c3)c(N)c2cc1C#CCO,,,,,309 nM,88.6 nM,533 nM,> 100 µM,896 nM,> 100 µM,86.2 nM,90.7 µM,795 nM,394 nM,> 100 µM,68.8 µM,> 100 µM,> 100 µM,,
CN1C(=O)n2c(nc3ccccc32)C(N=[N+]=[N-])(N=[N+]=[N-])C1=O (stereo unspecified),,> 100 µM,,> 100 µM,,,,> 100 µM,,> 100 µM,,> 100 µM,,,> 100 µM,> 100 µM,> 100 µM,,,
CCOC(=O)/C(=C/c1ccc(OC)c(OC)c1)C(=O)c1ccccc1,,28.9 µM,,46.9 µM,,,,76.8 µM,,28.5 µM,,,,,> 100 µM,51.4 µM,55.1 µM,,,
CCN1C(C)=NC2C(=O)c3ccccc3C(=O)C21 (stereo unspecified),,> 100 µM,,> 100 µM,,,,> 100 µM,,> 100 µM,,,,,> 100 µM,> 100 µM,> 100 µM,,,
CC[O-].CC[O-].[O-]c1ccccc1C=Nc1ccccc1.[O-]c1ccccc1C=Nc1ccccc1.[Ti+4],> 100000 nM,> 100 µM,> 100000 nM,> 100 µM,10900 nM,,97300 nM,> 100 µM,> 100000 nM,> 100 µM,> 100000 nM,> 100 µM,> 100000 nM,> 100000 nM,> 100 µM,> 100 µM,> 100 µM,,,
CN1CCC23c4c5ccc(O)c4OC2C(=NN=C2CCC4(O)C6Cc7ccc(O)c8c7C4(CCN6C)C2O8)CCC3(O)C1C5 (stereo unspecified),,> 100 µM,,> 100 µM,,,,> 100 µM,,> 100 µM,,> 100 µM,,,> 100 µM,> 100 µM,> 100 µM,,,
C/C(CC(=O)CCCC(=O)Nc1ccc(Cl)cc1Cl)=N/NC(=O)CC#N,,> 100 µM,,> 100 µM,,,,> 100 µM,,> 100 µM,,,,,> 100 µM,> 100 µM,> 100 µM,,,
C[C@]12CCC[C@H](OC=O)C1(O)C[C@H](C(=O)O)CC2 (stereo partly specified),,> 100 µM,,> 100 µM,,,,> 100 µM,,> 100 µM,,> 100 µM,,,> 100 µM,> 100 µM,> 100 µM,,,
C=C1C(=O)O[C@@H]2[C@H]1CC[C@H](C)[C@]1(O)CCC(=O)[C@@]21C,,,,> 10 µM,,,,> 10 µM,,> 10 µM,,> 10 µM,,,,> 10 µM,> 10 µM,> 10 µM,,
COC1=CC(=O)c2ccc(C(C)C)cc2C1(C)C1=NC(C)(C)CO1 (stereo unspecified),,> 100 µM,,> 100 µM,,,,> 100 µM,,> 100 µM,,> 100 µM,,,> 100 µM,> 100 µM,> 100 µM,,,
CCC[CH2][Sn]1([CH2]CCC)[O]C(c2ccccn2)S(=O)(=O)[O]1 (stereo unspecified),3570 nM,11.2 µM,2940 nM,8.26 µM,1540 nM,,2060 nM,4.79 µM,1940 nM,3.76 µM,1410 nM,2.86 µM,6470 nM,16800 nM,30.4 µM,20.3 µM,4.19 µM,,,
CC(=O)[O-].CC(=O)[O-].[Mn+2].c1ccc(/C(=N\Nc2ccccn2)c2ccccn2)cc1,34.9 nM,1.38 µM,,16.9 µM,,,,12.3 µM,,19.7 µM,205 nM,11 µM,27.1 nM and 141 nM,,1.14 µM,3.59 µM,0.402 µM,,11.6 µM,
CC1(C)CCC(=O)c2c(O)ccc(O)c21,,,,> 100 µM,,,,> 100 µM,,> 100 µM,,76.9 µM,,,,> 100 µM,,,,

Compound,GI50 [1],TGI [1],GI50 [2],TGI [2],GI50 [3],GI50 [4],GI50 [5],TGI [5],GI50 [6],TGI [6],GI50 [7],TGI [7],GI50 [8],GI50 [9],TGI [9],TGI [8],TGI [3],TGI [4],TGI [10],GI50 [10]
COc1cccc(/C=C(/C(=O)O)c2cc(OC)c(OC)c(OC)c2)c1,,> 100 µM,,> 100 µM,,,,> 100 µM,,> 100 µM,,> 100 µM,,,> 100 µM,> 100 µM,> 100 µM,,,
O=c1c(O)c(-c2ccc(O)c(O)c2)oc2cc(O)ccc12,,44 µM,,54.4 µM,,,,56.3 µM,,> 58.4 µM,,71.8 µM,,,29.2 µM,> 62.8 µM,> 71.1 µM,,,
Cc1cc(N(CCC#N)CCC#N)ccc1/C=C1/CN(N2C(=O)/C(=C/c3ccc(N(CCC#N)CCC#N)cc3C)N=C2c2ccccc2)C(c2ccccc2)=N1,,> 100 µM,,> 100 µM,,,,> 100 µM,,> 100 µM,,> 100 µM,,,> 100 µM,> 100 µM,> 100 µM,,,
Nn1c(CCCl)nc2c(Br)cc(Br)cc2c1=O,,> 70 µM,,> 100 µM,,,,> 100 µM,,> 100 µM,,> 90.8 µM,,,65.1 µM,60.3 µM,20.3 µM,,,
CCOC(=O)C12CCCC1(O)N(NC(=O)c1cccc(Cl)c1)C(C)=C2C(=O)OC (stereo unspecified),,> 100 µM,,> 100 µM,,,,> 100 µM,,> 100 µM,,,,,> 100 µM,> 100 µM,,,,
OCCN1CCN(CCO)Cc2ccccc2OCCOc2ccccc2C1,,> 100 µM,,,,,,> 100 µM,,> 100 µM,,> 100 µM,,,> 100 µM,> 100 µM,> 100 µM,,,
CCc1ccccc1NC(=O)/C(CC(=O)c1c(C)n([O-])c2ccccc2[n+]1=O)=N\NS(=O)(=O)c1ccc(C)cc1,,> 100 µM,,> 100 µM,,,,> 100 µM,,> 100 µM,,,,,> 100 µM,> 100 µM,52.6 µM,,,
Cc1ccc(-c2csc(N(C(=O)N3CCN(c4cc5c(cc4F)c(=O)c(C(=O)O)cn5C4CC4)CC3)c3ccccc3)n2)cc1,394 nM,> 100 µM,303 nM,1.86 µM,,,405 nM,> 100 µM,582 nM,> 100 µM,213 nM,0.798 µM,338 nM,331 nM,> 100 µM,> 100 µM,,,> 100 µM,460 nM
COc1ccc2[nH]c3c4c(c5cc(C(C)(C)C)ccc5c3c2c1)C(=O)N(c1ccccc1)C4=O,,> 100 µM,,> 100 µM,,,,> 100 µM,,> 100 µM,,,,,> 100 µM,> 100 µM,,,,
C/C(=N\O)c1sc(-n2nc(-c3ccccc3)cc2-c2ccccc2)nc1C,,18.3 µM,,20.2 µM,,,,18.1 µM,,17.8 µM,,,,,21.6 µM,22 µM,25.6 µM,,,
CC1(C)CC23C(=O)N(c4ccccc4)C(=Nc4ccccc4)NC2=CC(C#N)=C(C#N)C3O1 (stereo unspecified),,> 100 µM,,> 100 µM,,,,> 100 µM,,> 100 µM,,52.2 µM,,,> 100 µM,> 100 µM,> 100 µM,,,
CC(=O)CC(=O)N(CCN(C(=O)CC(C)=O)c1ccccc1)c1ccccc1,,> 100 µM,,> 100 µM,,,,> 100 µM,,> 100 µM,,> 100 µM,,,> 100 µM,> 100 µM,> 100 µM,,,
O=C1c2ccccc2C(=O)N1/N=C\c1ccc(Br)cc1,> 100000 nM,> 100 µM,> 100000 nM,> 100 µM,> 100000 nM,,> 100000 nM,> 100 µM,> 100000 nM,> 100 µM,> 100000 nM,> 100 µM,> 100000 nM,,> 10 µM,> 100 µM,> 100 µM,,,
C=C(C)C1CC=C(C(=O)O)CC1 (stereo unspecified),,> 5000 µM,,> 5000 µM,,,,> 5000 µM,,2640 µM,,3930 µM,,,3950 µM,1480 µM,2770 µM,,,
COc1cc(C(=O)C/C(CCC(=O)Nc2ccccc2[N+](=O)[O-])=N\NC(=O)C(N)=O)ccc1O,,> 100 µM,,> 100 µM,,,,> 100 µM,,> 100 µM,,> 100 µM,,,> 100 µM,> 100 µM,> 100 µM,,,
CCCCCCCCCOC(=S)NC,,45.8 µM,,67.5 µM,,,,44.9 µM,,58.5 µM,,42.5 µM,,,36.3 µM,63.7 µM,47.7 µM,,,
